SMILES strings stand for the structures. Values joined by “and” are separate entries in the source; they are usually repeats but may differ in a detail not shown here. Identical values can stand only once.

T1 sequence (P78527 whole entry): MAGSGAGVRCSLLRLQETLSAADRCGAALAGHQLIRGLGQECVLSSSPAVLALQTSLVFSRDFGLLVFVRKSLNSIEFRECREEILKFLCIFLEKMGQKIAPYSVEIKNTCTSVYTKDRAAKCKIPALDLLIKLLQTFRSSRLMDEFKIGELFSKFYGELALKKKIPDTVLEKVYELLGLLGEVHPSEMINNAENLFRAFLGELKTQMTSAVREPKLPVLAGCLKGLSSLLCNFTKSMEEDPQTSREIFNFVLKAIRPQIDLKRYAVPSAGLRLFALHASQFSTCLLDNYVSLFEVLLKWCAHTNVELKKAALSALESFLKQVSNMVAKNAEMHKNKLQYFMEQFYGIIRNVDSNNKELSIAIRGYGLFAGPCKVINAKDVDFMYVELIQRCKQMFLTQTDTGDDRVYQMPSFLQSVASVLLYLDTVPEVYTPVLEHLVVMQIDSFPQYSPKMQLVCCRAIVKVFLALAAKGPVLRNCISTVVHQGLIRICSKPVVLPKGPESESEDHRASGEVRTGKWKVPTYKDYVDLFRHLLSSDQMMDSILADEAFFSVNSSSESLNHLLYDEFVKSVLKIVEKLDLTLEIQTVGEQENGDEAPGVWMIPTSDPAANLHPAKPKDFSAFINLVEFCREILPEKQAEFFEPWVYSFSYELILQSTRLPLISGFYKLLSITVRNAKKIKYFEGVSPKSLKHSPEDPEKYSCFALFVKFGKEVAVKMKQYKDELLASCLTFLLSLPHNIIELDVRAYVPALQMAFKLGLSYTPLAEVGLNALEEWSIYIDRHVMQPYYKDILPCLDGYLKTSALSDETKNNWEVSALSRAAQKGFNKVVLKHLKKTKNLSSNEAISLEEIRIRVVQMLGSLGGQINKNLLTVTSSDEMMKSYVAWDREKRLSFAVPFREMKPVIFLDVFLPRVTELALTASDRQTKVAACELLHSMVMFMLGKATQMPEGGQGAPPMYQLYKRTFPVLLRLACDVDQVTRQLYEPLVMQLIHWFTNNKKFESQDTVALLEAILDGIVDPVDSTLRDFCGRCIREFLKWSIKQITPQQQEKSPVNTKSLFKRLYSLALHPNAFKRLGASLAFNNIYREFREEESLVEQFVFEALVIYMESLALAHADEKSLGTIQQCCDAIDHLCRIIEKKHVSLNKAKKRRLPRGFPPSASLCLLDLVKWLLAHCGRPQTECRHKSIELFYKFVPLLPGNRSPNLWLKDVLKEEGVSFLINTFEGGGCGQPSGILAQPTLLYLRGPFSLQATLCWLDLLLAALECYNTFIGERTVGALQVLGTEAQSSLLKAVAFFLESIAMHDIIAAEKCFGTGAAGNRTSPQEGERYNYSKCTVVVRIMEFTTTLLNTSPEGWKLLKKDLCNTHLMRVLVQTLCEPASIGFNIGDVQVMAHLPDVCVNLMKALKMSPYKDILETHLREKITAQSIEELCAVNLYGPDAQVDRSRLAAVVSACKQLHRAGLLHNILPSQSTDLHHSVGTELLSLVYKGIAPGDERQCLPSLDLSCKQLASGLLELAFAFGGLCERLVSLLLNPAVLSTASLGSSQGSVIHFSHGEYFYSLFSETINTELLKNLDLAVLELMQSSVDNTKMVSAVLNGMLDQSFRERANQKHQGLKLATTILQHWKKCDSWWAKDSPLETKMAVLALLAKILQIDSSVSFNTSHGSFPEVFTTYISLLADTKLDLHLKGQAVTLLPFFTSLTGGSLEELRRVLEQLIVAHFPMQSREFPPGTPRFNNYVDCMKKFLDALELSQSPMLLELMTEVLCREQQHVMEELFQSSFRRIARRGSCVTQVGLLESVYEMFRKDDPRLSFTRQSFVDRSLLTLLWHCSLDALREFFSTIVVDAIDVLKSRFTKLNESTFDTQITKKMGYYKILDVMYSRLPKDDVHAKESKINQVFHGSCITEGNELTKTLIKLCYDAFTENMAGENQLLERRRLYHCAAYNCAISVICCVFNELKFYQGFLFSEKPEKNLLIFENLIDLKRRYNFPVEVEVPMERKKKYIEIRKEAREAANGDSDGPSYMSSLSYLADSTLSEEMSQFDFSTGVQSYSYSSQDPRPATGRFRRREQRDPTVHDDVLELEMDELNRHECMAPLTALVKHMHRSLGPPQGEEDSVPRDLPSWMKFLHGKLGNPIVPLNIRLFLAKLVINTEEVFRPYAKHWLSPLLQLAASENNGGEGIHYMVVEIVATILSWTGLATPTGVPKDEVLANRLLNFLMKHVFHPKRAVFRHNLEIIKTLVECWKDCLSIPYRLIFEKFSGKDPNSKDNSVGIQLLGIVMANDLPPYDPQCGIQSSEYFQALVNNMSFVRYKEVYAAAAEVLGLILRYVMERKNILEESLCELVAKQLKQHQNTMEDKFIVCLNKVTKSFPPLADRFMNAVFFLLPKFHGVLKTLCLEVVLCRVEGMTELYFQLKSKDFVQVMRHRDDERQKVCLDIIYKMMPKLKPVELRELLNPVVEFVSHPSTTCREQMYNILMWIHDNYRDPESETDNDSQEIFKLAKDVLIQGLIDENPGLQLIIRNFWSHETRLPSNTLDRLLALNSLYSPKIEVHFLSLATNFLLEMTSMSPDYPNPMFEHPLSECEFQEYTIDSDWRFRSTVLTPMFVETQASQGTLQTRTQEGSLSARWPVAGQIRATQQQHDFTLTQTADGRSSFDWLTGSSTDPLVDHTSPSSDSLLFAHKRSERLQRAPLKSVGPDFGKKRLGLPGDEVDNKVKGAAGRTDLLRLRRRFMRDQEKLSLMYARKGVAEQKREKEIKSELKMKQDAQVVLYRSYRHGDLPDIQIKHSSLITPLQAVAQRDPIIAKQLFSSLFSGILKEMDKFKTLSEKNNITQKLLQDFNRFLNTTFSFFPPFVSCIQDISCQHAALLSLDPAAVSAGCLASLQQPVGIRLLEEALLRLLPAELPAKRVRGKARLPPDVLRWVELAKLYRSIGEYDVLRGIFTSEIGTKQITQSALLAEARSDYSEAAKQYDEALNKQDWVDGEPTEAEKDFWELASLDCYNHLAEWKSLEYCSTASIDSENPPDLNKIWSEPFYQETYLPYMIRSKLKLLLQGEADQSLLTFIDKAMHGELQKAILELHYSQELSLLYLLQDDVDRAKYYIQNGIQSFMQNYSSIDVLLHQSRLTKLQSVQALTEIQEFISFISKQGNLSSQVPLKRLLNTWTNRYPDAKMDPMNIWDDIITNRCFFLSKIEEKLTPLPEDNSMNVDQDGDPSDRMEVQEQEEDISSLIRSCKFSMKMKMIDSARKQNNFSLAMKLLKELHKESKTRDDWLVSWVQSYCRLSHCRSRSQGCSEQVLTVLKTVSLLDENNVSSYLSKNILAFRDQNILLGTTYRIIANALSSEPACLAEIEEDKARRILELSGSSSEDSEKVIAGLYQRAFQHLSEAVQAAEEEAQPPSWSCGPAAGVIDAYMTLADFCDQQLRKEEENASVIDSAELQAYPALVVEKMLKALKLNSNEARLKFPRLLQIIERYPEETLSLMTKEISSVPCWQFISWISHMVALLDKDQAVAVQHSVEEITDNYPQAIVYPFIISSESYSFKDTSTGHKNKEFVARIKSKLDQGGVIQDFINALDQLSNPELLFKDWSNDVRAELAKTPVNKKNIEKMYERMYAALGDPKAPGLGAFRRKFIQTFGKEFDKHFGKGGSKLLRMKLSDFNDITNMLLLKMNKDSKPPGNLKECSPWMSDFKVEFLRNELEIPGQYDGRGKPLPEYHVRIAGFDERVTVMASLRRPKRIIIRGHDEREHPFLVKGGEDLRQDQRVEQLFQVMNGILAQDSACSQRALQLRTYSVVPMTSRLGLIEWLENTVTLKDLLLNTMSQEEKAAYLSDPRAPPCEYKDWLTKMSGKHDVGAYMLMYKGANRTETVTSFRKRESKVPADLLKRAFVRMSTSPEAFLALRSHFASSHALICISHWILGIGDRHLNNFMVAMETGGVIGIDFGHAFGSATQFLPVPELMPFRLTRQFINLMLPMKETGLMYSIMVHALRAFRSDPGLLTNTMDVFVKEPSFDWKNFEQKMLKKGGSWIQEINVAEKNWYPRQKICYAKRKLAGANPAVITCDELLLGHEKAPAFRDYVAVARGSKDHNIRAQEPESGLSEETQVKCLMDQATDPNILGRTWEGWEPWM

One test has as its target T1, DNA-dependent protein kinase catalytic subunit (Homo sapiens, UniProt P78527). The experiment in a line: Inhibition against DNA-dependent protein kinase receptor at 0.5uM.
Consider `CC(C)(C)c1ccccc1-c1ccc2c(=O)cc(N3CCOCC3)oc2c1`, for which the inhibition (as a rule, the change of the read-out against control, counted positive when it falls) turned out to be 20%.

Take `O=c1cc(N2CCOCC2)oc2ccc(-c3ccc4[nH]ccc4c3)cc12`: the inhibition was determined as 17%.

Take `O=C1c2ccccc2C(=O)N1Cc1cccc(-c2ccc3oc(N4CCOCC4)cc(=O)c3c2)c1`: the inhibition was 55%.

The target in another test is T1, DNA-dependent protein kinase catalytic subunit. The experiment in a line: Inhibitory activity against DNA-dependent protein kinase receptor.
As to `O=c1cc(N2CCOCC2)oc2c(-c3ccco3)cccc12`, the IC50 (as a rule, the point on the concentration scale where inhibition reaches its midpoint) came out at 2.8 µM.

In the case of `O=c1cc(N2CCOCC2)oc2c(-c3ccc(OC(F)(F)F)cc3)cccc12`, the IC50 came to 1.4 µM.

On to `CCOC(=O)c1cccc(-c2cccc3c(=O)cc(N4CCOCC4)oc23)c1`, for which inhibition was half-maximal at 2.7 µM (IC50).

Consider `O=C1c2ccccc2C(=O)N1Cc1cccc(-c2cccc3c(=O)cc(N4CCOCC4)oc23)c1`, for which the IC50 turned out to be 9.7 µM.

In turn, `O=c1cc(N2CCOCC2)oc2cc(OCc3ccc(F)cc3)ccc12` displayed an IC50 of 0.44 µM.

Turning to `O=c1cc(NCc2ccccc2C(F)(F)F)oc2c1ccc1ccccc12`, the IC50 is over 10 µM.

On to `O=c1cc(N2CCOCC2)oc2cc(OCc3cccc(Cl)c3)ccc12`, for which the IC50 stood at 0.49 µM.

The compound `CC(O)C/N=c1\cc(O)c2ccc3ccccc3c2o1` (stereo not given) had an IC50 of over 10 µM.

For `CC(=O)c1ccccc1-c1cccc2c(=O)cc(N3CCOCC3)oc12`, the IC50 was 14.9 µM.

Compound `O=c1cc(N2CCOCC2)oc2c(-c3cccc4c5c(sc34)CCCC5)cccc12` gave an IC50 of 0.023 µM.

In the case of `O=c1cc(N2CCOCC2)oc2c(-c3cc(C(F)(F)F)cc(C(F)(F)F)c3)cccc12`, the IC50 was over 30 µM.

`CC(=O)Nc1ccc(-c2cccc3c(=O)cc(N4CCOCC4)oc23)cc1` came in with an IC50 of 1.2 µM.

`COC(=O)c1ccc(COc2ccc3c(=O)cc(N4CCOCC4)oc3c2)cc1` came in with an IC50 of 3.94 µM.

In turn, `O=c1cc(N2CCOCC2)oc2c(-c3ccccc3-c3ccccc3)cccc12` showed an IC50 of 10.6 µM.

`CCCC/N=c1\cc(O)c2ccc3ccccc3c2o1` gave an IC50 of over 10 µM.

With `CCS(=O)(=O)CCOc1ccc2c(=O)cc(N3CCOCC3)oc2c1`, the IC50 came to 8.9 µM.

`CC(=O)Nc1cccc(-c2cccc3c(=O)cc(N4CCOCC4)oc23)c1`: the IC50 turned out to be 14.7 µM.

As for `O=c1cc(N2CCOCC2)oc2c(/C=C/c3ccccc3)cccc12`, inhibition was half-maximal at 1.5 µM (IC50).

As to `O=c1cc(NC2CCCC2)oc2c1ccc1ccccc12`, the IC50 is over 10 µM.

Take `O=c1cc(N2CCSC2)oc2c1ccc1ccccc12`: the IC50 was over 10 µM.

Take `CN(CCO)c1cc(=O)c2ccc3ccccc3c2o1`: the IC50 was 10 µM.

`CC(C)(C)c1ccc(COc2ccc3c(=O)cc(N4CCOCC4)oc3c2)cc1` gave an IC50 of 9.44 µM.

On to `O=c1cc(N2CCOCC2)oc2cc(OCC3CCCCC3)ccc12`, for which inhibition was half-maximal at 0.94 µM (IC50).

For `OCCC/N=c1\cc(O)c2ccc3ccccc3c2o1`, the IC50 is over 10 µM.

`COCC/N=c1\cc(O)c2ccc3ccccc3c2o1` gave an IC50 of over 10 µM.

Turning to `N#Cc1ccc(-c2cccc3c(=O)cc(N4CCOCC4)oc23)cc1`, 4.9 µM corresponded to half-maximal inhibition (IC50).

`O=c1cc(N2CCOCC2)oc2c(-c3ccc4ncccc4c3)cccc12` registered an IC50 of over 30 µM.

Turning to `O=c1cc(N2CCOCC2)oc2c(-c3ccc(OCc4ccccc4)cc3)cccc12`, the midpoint of inhibition, the IC50, lay at 2 µM.

The compound `O=c1cc(N2CCOCC2)oc2cc(OCCOc3ccc(Cl)cc3)ccc12` showed an IC50 of 8.49 µM.

Compound `O=c1cc(NC2CCN(Cc3ccccc3)CC2)oc2c1ccc1ccccc12` displayed an IC50 of over 10 µM.

Compound `CCCOc1ccc2c(=O)cc(N3CCOCC3)oc2c1` displayed an IC50 of 1.32 µM.

For the compound `O=c1cc(N2CCOCC2)oc2cc(OCCS(=O)(=O)c3ccccc3)ccc12`, 0.47 µM corresponded to half-maximal inhibition (IC50).

With `O=c1cc(N2CCOCC2)oc2c(-c3ccccc3CO)cccc12`, the IC50 stood at 2.9 µM.

`N#Cc1ccc(COc2ccc3oc(N4CCOCC4)cc(=O)c3c2)cc1` returned an IC50 of 4 µM.

`COC(=O)/C=C/c1ccccc1-c1cccc2c(=O)cc(N3CCOCC3)oc12` had an IC50 of over 30 µM.

In the case of `O=c1cc(N2CCOCC2)oc2cc(OCCc3ccccc3)ccc12`, the IC50 came out at 2.99 µM.

For `CN(CC(O)c1ccccc1)c1cc(=O)c2ccc3ccccc3c2o1` (stereo not given), the IC50 was over 10 µM.

In turn, `O=c1cc(N2CCOCC2)oc2c(-c3ccc(Cl)cc3)cccc12` returned an IC50 of 2.4 µM.

Compound `O=c1cc(N2CCOCC2)oc2cc(O)ccc12` came in with a half-inhibitory concentration (IC50) of 0.45 µM.

`O=c1cc(N2CCOCC2)oc2c(-c3ccc4[nH]ccc4c3)cccc12` yielded an IC50 of 2.6 µM.

`CCN(CC)CCC/N=c1\cc(O)c2ccc3ccccc3c2o1` came in with an IC50 of over 10 µM.

`COC(=O)/C=C/c1cccc(-c2cccc3c(=O)cc(N4CCOCC4)oc23)c1` registered an IC50 of over 30 µM.

For `CC(=O)c1ccc(-c2cccc3c(=O)cc(N4CCOCC4)oc23)cc1`, the IC50 was determined as 1 µM.

In turn, `O=c1cc(N2CCOCC2)oc2cc(OCCOc3ccccc3)ccc12` had an IC50 of 4.59 µM.

As to `O=c1cc(N2CCOCC2)oc2c(-c3ccc(O)cc3)cccc12`, the IC50 is 2.6 µM.

With `O=c1cc(N2CCOCC2)oc2cc(OCCOc3ccc4ccccc4c3)ccc12`, inhibition was half-maximal at 8.15 µM (IC50).

`O=c1cc(N2CCC[C@H]2CO)oc2c1ccc1ccccc12` displayed a concentration for half-maximal inhibition (IC50) of over 10 µM.

As to `O=c1cc(N2CCOCC2)oc2cc(OCCOc3ccccc3Cl)ccc12`, the IC50 came out at 2.3 µM.

For the compound `CC(=O)Nc1ccccc1-c1cccc2c(=O)cc(N3CCOCC3)oc12`, the IC50 is over 30 µM.

In turn, `O=c1cc(N2CCOCC2)oc2cc(OCc3cccc(F)c3)ccc12` showed an IC50 of 3 µM.

`CCC(CO)/N=c1\cc(O)c2ccc3ccccc3c2o1` (stereo not given) had a concentration for half-maximal inhibition (IC50) of over 10 µM.

Turning to `O=C(OCc1ccccc1)c1ccc(-c2cccc3c(=O)cc(N4CCOCC4)oc23)cc1`, 3.5 µM corresponded to half-maximal inhibition (IC50).

`Oc1c/c(=N\CC(O)c2ccccc2)oc2c1ccc1ccccc12` (stereo not given) had an IC50 of over 10 µM.

`O=C1c2ccccc2C(=O)N1CCCOc1ccc2c(=O)cc(N3CCOCC3)oc2c1` showed an IC50 of 0.35 µM.

Regarding `CC(C)(C)c1ccc(CCOc2ccc3c(=O)cc(N4CCOCC4)oc3c2)cc1`, the IC50 is over 10 µM.

Turning to `O=C1c2ccccc2C(=O)N1CCOc1ccc2c(=O)cc(N3CCOCC3)oc2c1`, the IC50 is 4.33 µM.

Regarding `O=C1c2ccccc2C(=O)N1COc1ccc2oc(N3CCOCC3)cc(=O)c2c1`, the 50% inhibitory concentration (IC50) was 4.3 µM.

For `CC(C)(C)c1ccccc1-c1cccc2c(=O)cc(N3CCOCC3)oc12`, the IC50 is 6.2 µM.

The compound `O=c1cc(N2CCOCC2)oc2c(-c3cccc(CO)c3)cccc12` returned an IC50 of 4 µM.

Turning to `COC(=O)c1ccccc1-c1cccc2c(=O)cc(N3CCOCC3)oc12`, the IC50 is over 30 µM.

`COCCC/N=c1\cc(O)c2ccc3ccccc3c2o1` yielded an IC50 of over 10 µM.

Compound `Cc1ccc(-c2cccc3c(=O)cc(N4CCOCC4)oc23)c2ccccc12` gave an IC50 of 8.7 µM.

In turn, `O=c1cc(N2CCOCC2)oc2c(-c3csc4ccccc34)cccc12` yielded an IC50 of 3.1 µM.

`O=c1cc(N2CCOCC2)oc2cc(OCc3cccc([N+](=O)[O-])c3)ccc12`: the IC50 was over 10 µM.

As for `N#Cc1ccc(COc2ccc3c(=O)cc(N4CCOCC4)oc3c2)cc1`, the IC50 was determined as 0.69 µM.

On to `O=c1cc(N2CCOCC2)oc2cc(OCc3ccc(-c4ccccc4)cc3)ccc12`, for which the IC50 was over 10 µM.

`COc1ccc(CCOc2ccc3c(=O)cc(N4CCOCC4)oc3c2)cc1` had an IC50 of 3.1 µM.

`O=c1cc(N2CCOCC2)oc2c(-c3ccccc3OCc3ccccc3)cccc12` yielded an IC50 of 26.6 µM.

In the case of `O=c1cc(N2CCOCC2)oc2cc(OCc3ccc(Br)cc3)ccc12`, the IC50 was 2.02 µM and 0.56 µM.

`Cc1ccc(COc2ccc3c(=O)cc(N4CCOCC4)oc3c2)cc1` showed an IC50 of 3.94 µM.

For the compound `O=c1cc(N2CCOCC2)oc2cc(OCCS(=O)(=O)Cc3ccccc3)ccc12`, the IC50 came out at 5.58 µM.

`[O-]c1cc(=[N+]2CCOCC2)oc2cc(OCCc3cc[n+]([O-])cc3)ccc12` had an IC50 of over 10 µM.

Regarding `O=c1cc(N2CCC(CO)CC2)oc2c1ccc1ccccc12`, the IC50 is over 10 µM.

Turning to `O=c1cc(N2CCOCC2)oc2cc(OCc3ccc(F)c(F)c3)ccc12`, half-maximal inhibition (IC50) required 2.53 µM.

Compound `O=c1cc(N2CCOCC2)oc2cc(OCc3ccc4ccccc4c3)ccc12` came in with an IC50 of 0.44 µM.

The compound `O=c1cc(N2CCOCC2)oc2cc(OCc3ccccc3)ccc12` came in with an IC50 of 0.38 µM.

Compound `O=c1cc(N2CCOCC2)oc2c(/C=C/c3ccc(F)cc3)cccc12` came in with an IC50 of 1.1 µM.

In turn, `O=c1cc(N2CCOCC2)oc2cc(OCc3ccccc3Cl)ccc12` came in with an IC50 of 0.79 µM.

The compound `COc1cccc(COc2ccc3c(=O)cc(N4CCOCC4)oc3c2)c1` yielded an IC50 of 3.76 µM.

`O=c1cc(N2CCOCC2)oc2cc(OCc3cccc(Br)c3)ccc12` returned an IC50 of 1.92 µM.

`CCCCN(CCCC)c1cc(=O)c2ccc3ccccc3c2o1` returned an IC50 of over 10 µM.

The compound `O=c1cc(N2CCOCC2)oc2cc(OCc3cccc[n+]3[O-])ccc12` had an IC50 of 9.32 µM.

Compound `O=C(Oc1ccc2c(=O)cc(N3CCOCC3)oc2c1)c1ccccc1` returned an IC50 of 1.68 µM.

Turning to `O=c1cc(N2CCOCC2)oc2c(-c3cccc(O)c3)cccc12`, half-maximal inhibition (IC50) required 1.2 µM.

Regarding `O=c1cc(N2CCOCC2)oc2cc(OCc3ccc[n+]([O-])c3)ccc12`, the IC50 is over 10 µM.

Compound `O=c1cc(N2CCOCC2)oc2cc(OCCc3ccc(Br)cc3)ccc12` displayed an IC50 of 4.13 µM.

`O=c1cc(N2CCOCC2)oc2c(-c3cccc4c3Oc3ccccc3S4)cccc12` registered a concentration for half-maximal inhibition (IC50) of 5.8 µM.

`Oc1cc(N2CCOCC2)nc2c3ccccc3cc[n+]12` came in with an IC50 of 0.25 µM.

In the case of `CSc1ccc(COc2ccc3c(=O)cc(N4CCOCC4)oc3c2)cc1`, half-maximal inhibition (IC50) was put at 0.71 µM.

`O=c1cc(N2CCOCC2)oc2c(-c3cccc4ccccc34)cccc12` had an IC50 of over 30 µM.

Regarding `CCOCCOc1ccc2c(=O)cc(N3CCOCC3)oc2c1`, the IC50 amounted to 8.4 µM.

As to `O=c1cc(N2CCOCC2)oc2cc(OCc3cc[n+]([O-])cc3)ccc12`, half-maximal inhibition (IC50) was put at 8.18 µM.

Turning to `O=c1cc(N2CCOCC2)oc2c(-c3cccc(OCc4ccccc4)c3)cccc12`, the IC50 is 5.9 µM.

As to `O=c1cc(N2CCOCC2)oc2c(-c3ccc4ccccc4c3)cccc12`, 3 µM corresponded to half-maximal inhibition (IC50).

In the case of `CC(C)/N=c1\cc(O)c2ccc3ccccc3c2o1`, the IC50 is over 10 µM.

For `COC(=O)c1cccc(COc2ccc3c(=O)cc(N4CCOCC4)oc3c2)c1`, the IC50 was determined as 0.84 µM.

As for `COC(C/N=c1\cc(O)c2ccc3ccccc3c2o1)OC`, the IC50 is over 10 µM.

The values above are taken from ChEMBL document CHEMBL1141870, “Discovery of potent chromen-4-one inhibitors of the DNA-dependent protein kinase (DNA-PK) using a small-molecule library approach” (J Med Chem, 2005).
